# Results: the NIST ThermoML archive (doi:10.1016/j.fluid.2015.09.031)
# ± gives the expanded uncertainty stated by the source.
# Settings: Liquid, Ebulliometric method (Recirculating still)
SMILES,vapor or sublimation pressure (288.15 K) [kPa],vapor or sublimation pressure (298.15 K) [kPa],vapor or sublimation pressure (308.15 K) [kPa]
CCCCCl [1-chlorobutane],8.4 ± 0.1,13.52 ± 0.1,21.04 ± 0.1
CC(C)(C)Cl [2-chloro-2-methylpropane],26.42 ± 0.11,40.13 ± 0.11,59.52 ± 0.12
CCC(C)Cl (stereo not given) [2-chlorobutane],13.36 ± 0.1,20.91 ± 0.1,31.55 ± 0.11

# Next, values leading:
vapor or sublimation pressure (288.15 K) [kPa],vapor or sublimation pressure (298.15 K) [kPa],vapor or sublimation pressure (308.15 K) [kPa],SMILES
13 ± 0.1,20.35 ± 0.1,30.45 ± 0.11,CC(C)CCl [1-chloro-2-methylpropane]
3.63 ± 0.1,6.095 ± 0.1,9.865 ± 0.1,CCCCCCC [heptane]
